The results in this text go back to a melting point compilation (Tetko et al.; mined from patent text by program, amines drawn as free bases though some values may be those of a salt).

For orientation: melting point means the temperature, or range, at which the solid turns liquid.

The structures appear in SMILES notation. Residues, ends and D or L forms follow the SMILES beside them. *: point of attachment. Cbz = O=C(OCc1ccccc1)*

With `O=C(O)Cc1c(C(=O)O)c2cc(Oc3ccc(Cl)cc3)ccc2n1-c1ccccc1`, the melting point is 202 to 204 °C.

In the case of `COc1ccc(Oc2ccccc2)c(N)c1`, the melting point was 112 to 114 °C.

As for `CN(Cc1ccc(NC(=O)C2=Cc3cc(-c4ccc(N5CCOCC5)cc4)ccc3SCC2)cc1)C1CCOCC1`, the melting point lay in the range of 255 to 259 °C.

The molecule `COc1ccc(Cc2nc3cnc4cc(-c5ccccc5)ccc4c3n2CCOc2ccccc2)cc1` gave a melting point of 205 to 206 °C.

Molecule `CN(C)CCCNc1ncc2c(n1)-c1ccccc1C(c1cccc(Br)c1)C2` (configuration not stated) had a melting point of 120 to 122 °C.

As to `CN1CCN(c2cc(Cl)cc3c2c(=O)n(CCCc2ccccc2)c(=O)n3Cc2ccccc2)CC1`, the melting point was 55 to 63 °C.

On to `COc1ccc(C=O)c(Cl)c1O`, for which the melting point was in the range of 204 to 206 °C.

With `COc1cc(N2CCC(N3CCOCC3)CC2)ccc1-c1nc2c(N[C@H]3[C@@H](C(N)=O)[C@@H]4C=C[C@H]3C4)c(Br)cnc2[nH]1`, the melting point is 185 to 195 °C.

`CC(=O)c1ccc(OCCCN2CCC(c3noc4cc(F)ccc34)CC2)cc1C`: the melting point is 113 to 114 °C.

`Cc1cc(C)cc(COC(=O)C(NC(=O)OC(C)(C)C)C(c2ccccc2)c2ccccc2)c1` (configuration not stated): the melting point is 123 °C.

For the molecule `O=c1[nH]c2cc(C(F)(F)F)cc3c2n(c1=O)C(P(=O)(O)O)CC3` (configuration not stated), the melting point is 262 °C.

In the case of `Cc1ccc(S(=O)(=O)OC[C@H]2CCc3ccc4ccccc4c3O2)cc1`, the melting point was 107 to 111 °C.

Consider `CCCCc1oc2ccccc2c1C(=O)Nc1ccc2c(Br)c(OCC#N)ccc2c1`, for which the melting point lay within 155 to 159 °C.

For `CCc1nc2c(Cl)cc(F)c([N+](=O)[O-])c2s1`, the melting point fell in the range of 70 to 73 °C.

`CCc1c(Nc2cc(C)cc(C)c2)nc(OC)nc1OC` yielded a melting point of 113 to 114 °C.

The molecule `FC(F)(F)c1cc(CCC2OCCNC2c2ccccc2)cc(C(F)(F)F)c1` (configuration not stated) gave a melting point of 114 to 116 °C.

Molecule `C[C@@H](Cn1ncc2ccc(O)c(C=O)c21)NC(=O)OCc1ccccc1` returned a melting point of 135 to 137 °C.

With `O=[N+]([O-])C=C1CN=C(c2ccccc2F)c2cc(Cl)ccc2N1`, the melting point lay in the range of 170 to 172 °C.

The molecule `CC(C)c1cccc(C(C)C)c1NC(=O)NCC1(Nc2ccc(-c3ccccc3)cc2)CCCC1` showed a melting point of 198 °C.

Molecule `CN(C)CCCOc1ccc(-c2nnc(CSCCOc3ccccc3)o2)cn1` came in with a melting point of 69 to 70 °C.

`CNc1ncnc2c1ncn2C1OC(CO)C(O)C1F` (configuration not stated) came in with a melting point of 140 °C.

As to `Cc1ccc(N(C)CCC(C)NCC(O)c2ccc(O)c(C(N)=O)c2)cc1` (configuration not stated), the melting point was in the range of 123 to 126 °C.

As to `O=C(Nc1ccc2[nH]c(=O)[nH]c2c1)C(=O)N1CCC(Cc2ccccc2)CC1`, the melting point was > 260 °C.

In the case of `O=C(O)C(Cl)Cc1ccccc1[N+](=O)[O-]` (configuration not stated), the melting point fell in the range of 108 to 109 °C.

Take `C=C(c1ccc(Cl)cc1)c1ccc(NC(=O)OC(C)(C)C)c(C)c1`: the melting point lay within 102 to 104 °C.

`Oc1ncc(Br)cc1C(F)(F)F` came in with a melting point of 160 to 162 °C.

Molecule `O=C(O)c1c(F)ccc([N+](=O)[O-])c1C(F)(F)F` registered a melting point of 190 °C.

In the case of `CC(C)c1ccc(C2NCCc3c2[nH]c2ccccc32)cc1` (configuration not stated), the melting point was found to be 146 °C.

With `COc1ccc(C(=CC#N)c2cccc([N+](=O)[O-])c2)cc1OC`, the melting point is 118 to 120 °C.

In turn, `COc1c(N2CCC(O)C2)c(F)cc2c(=O)c(C(=O)O)cn(C3CC3)c12` (configuration not stated) had a melting point of 253 to 254 °C.

Molecule `COc1ccc(CN2C(=O)C[C@H]2[C@@H]2COC(C)(C)O2)c(OC)c1` gave a melting point of 85 to 86 °C.

The molecule `CCOC(=O)c1cc2n(c1)C(C)Nc1ccccc1-2` (configuration not stated) came in with a melting point of 102 to 103 °C.

Regarding `Cc1cc(C(=O)Nc2ccccc2)c(C)o1`, the melting point lay in the range of 92 to 93 °C.

Molecule `N=c1sc2cc(OC(F)(F)F)ccc2n1CCCO` yielded a melting point of 106 °C.

Regarding `O=C1Cc2cc(OCc3ccc4ccccc4n3)ccc2N1c1ccccc1`, the melting point lay in the range of 148 to 149 °C.

`CCCn1c(=O)c2c(nc(/C=C/c3ccc(OC)cc3)n2C)n(CCC)c1=O` gave a melting point of 160 to 161 °C.

The molecule `COc1nc2c(c(OC)n1)C(c1cc(OC)c(OC)c(OC)c1)C1=C(COC1=O)N2` (configuration not stated) displayed a melting point of 299 to 300 °C.

For the molecule `NC1C(=O)N(CCCO)c2ccccc2N(c2ccccc2)C1=O` (configuration not stated), the melting point was in the range of 55 to 58 °C.

For the molecule `CCCCCN1C(=O)C2(OCc3cc4c(cc32)OCO4)c2ccccc21` (configuration not stated), the melting point was 113 to 115 °C.

As to `CC(=O)CC(=O)Nc1cccc(OC(=O)NC2CCCCC2)c1`, the melting point worked out at 159 °C.

With `O=C(Nc1ccc(OC(F)(F)F)cc1)NC1CCN(C(=O)Cc2ccccn2)CC1`, the melting point lay within 183 to 187 °C.

`COc1ncccc1-c1[nH]c2ccccc2c1C1CCN(S(=O)(=O)c2ccccc2)CC1` returned a melting point of 231 to 234 °C.

Turning to `CCOc1ccc(-c2c(Cl)ncn2-c2ccc(S(C)(=O)=O)cc2)cc1`, the melting point turned out to be 207 °C.

In the case of `Cc1noc(NS(=O)(=O)c2cccs2)c1Br`, the melting point lay in the range of 125 to 127 °C.

For `COc1cc(-c2nc(C)no2)cc2oc(=O)c(C)c(C)c12`, the melting point lay in the range of 172 to 174 °C.

Regarding `CCOc1cc2nc(S(=O)c3ccccc3-c3ccccn3)[nH]c2cc1OCC` (configuration not stated), the melting point lay in the range of 194 to 195 °C.

Regarding `CCCN(Cc1ccc(-c2ccccc2-c2nc(=O)o[nH]2)cc1)c1nn(C)cc1C(=O)O`, the melting point was 124 to 126 °C.

`CCn1cc(C(=O)O)c(=O)c2cc(F)c(-c3ccnc(N)n3)cc21`: the melting point was 245 to 247 °C.

In turn, `CCCN(CCC)Cc1coc(-c2ncn3c2CN(C)C(=O)c2ccccc2-3)n1` had a melting point of 109 to 110 °C.

The molecule `OC(CCN1CCN(c2ccc(F)cc2)CC1)c1cnn2c1CCCC2` (configuration not stated) showed a melting point of 130 to 131 °C.

With `Brc1ccccc1Oc1nc2ccccc2n2cncc12`, the melting point was in the range of 180 to 182 °C.

`Cc1cccc(C)c1N1C(=N)N(c2c(C)cccc2C)C(C)C1C` (configuration not stated) came in with a melting point of 155 to 157 °C.

As for `Cc1ccc2c(c1)c(-c1ccc(F)cc1)cn2N1CCN(C)CC1`, the melting point lay in the range of 105 to 107 °C.

For `CCCCn1c(N)c(N=O)c(=O)n(CC2CCCCC2)c1=O`, the melting point was in the range of 229 to 230 °C.

In turn, `CC(=O)c1ccc(Cl)c2c1OC(F)(F)O2` yielded a melting point of 40 °C.

Turning to `CC(=O)OC(C)c1cc2c(s1)C(=O)c1c(C(C)OC(C)=O)csc1C2=O` (configuration not stated), the melting point was 180 to 182 °C.

Take `O=c1nc(-c2ccccc2)c2cc(Cl)sc2n1CC1CC1`: the melting point is 149 to 151 °C.

`COC(=O)c1ccc(CNC(=O)C2Cc3ccccc3N2S(=O)(=O)c2ccc(-c3cccc(C(F)(F)F)c3)cc2)cc1` (configuration not stated) registered a melting point of 70 °C.

Consider `CN1C(C(=O)NC2CCC(O)CC2)C(c2cccc(Cl)c2F)C2(C(=O)Nc3cc(Cl)ccc32)C1CC(C)(C)C` (configuration not stated), for which the melting point amounted to 188 °C.

The molecule `Cc1cc(NC(=O)c2cc(Cl)cc(C)n2)ccn1` yielded a melting point of 162 °C.

Regarding `CCOC(=O)c1nn(-c2ccccc2Br)c(=O)c2c(N)scc12`, the melting point was 203 to 205 °C.

As for `O=C(NC(=S)NC1CCN(CCc2c[nH]c3ccccc23)CC1)c1ccccc1`, the melting point fell in the range of 212 to 215 °C.

Molecule `Cn1c2ccc(C=O)cc2c2nc3ccccc3nc21` displayed a melting point of 228 to 230 °C.

For the molecule `Cc1ccccc1CC(=O)c1cccc(I)c1`, the melting point fell in the range of 115 to 117 °C.

`Cc1c(C(=O)c2ccc(O)cc2)oc2ccc([N+](=O)[O-])cc12` registered a melting point of 235 °C.

In turn, `O=C(OCC1=CC(O)C2C=COC(OC3OC(CO)C(O)C(O)C3O)C12)c1ccc(O)cc1` (configuration not stated) gave a melting point of 148 to 150 °C.

`CCOc1ccc2nc(Sc3ccc([N+](=O)[O-])c(N)c3)sc2c1`: the melting point lay in the range of 126 to 129 °C.

On to `Cc1noc(C)c1Cn1cc(N2C(=O)CN(CCc3ccccc3)C2=O)cn1`, for which the melting point is 95 to 96 °C.

Consider `Fc1ccc(-c2ncn(CC3CC3)c2-c2ccncc2)cc1`, for which the melting point stood at 162 °C.

In turn, `C[C@H](O)C(=O)N[C@@H]1C(=O)Nc2c(F)cccc2O[C@@H]1C` had a melting point of 221 to 225 °C.

With `COc1cc(C(=O)N(C(C)C)C2CCCCC2)ccc1Cn1cccc2nc(C)nc1-2`, the melting point is 218 to 221 °C.

Turning to `CC(C)(C)c1ccc(NC(=O)Nc2ccc(Oc3cc(NCc4ccccc4)ncn3)cc2)cc1`, the melting point was in the range of 118 to 120 °C.

Turning to `COc1ccc(Cc2nc3cc(Cl)cc(Br)c3o2)cc1OC`, the melting point lay within 123 to 124 °C.

In the case of `CCOC(=O)c1cc2cc(NS(=O)(=O)CCCCl)ccc2[nH]1`, the melting point lay in the range of 195 to 196 °C.

For the molecule `CCOC(=O)c1cc2c3n(ccc-2n1)CC(C(C)C)=N3`, the melting point fell in the range of 207 to 209 °C.

Molecule `Cc1cccc(-c2sc(N)nc2-c2ccnc(-c3ccc(OCC(N)=O)cc3)c2)n1` returned a melting point of 191 °C.

In turn, `CN1CC(Cn2cccn2)CC2c3cccc4[nH]cc(c34)CC21` (configuration not stated) showed a melting point of 192 to 194 °C.

For the molecule `N#Cc1cc(F)c(F)cc1[N+](=O)[O-]`, the melting point turned out to be 75 °C.

`CCc1nccn2c(-c3ccnc(NCC(C)(C)O)n3)c(-c3ccc(F)cc3F)nc12`: the melting point lay within 164 to 165 °C.

As for `O=c1c2c(cc3n1CCCS3)CCCC2`, the melting point fell in the range of 123 to 124 °C.

As for `CSc1nc(N)nc(N2CCc3ccccc3CC2)c1C#N`, the melting point is 164 to 168 °C.

Consider `CC1(Cc2ccc(Cl)c(Cl)c2)OC(=O)N(Cc2cc(C(F)(F)F)cc(C(F)(F)F)c2)C1=O` (configuration not stated), for which the melting point was 80 to 82 °C.

The molecule `COc1cccc2cc(CNCCNC(=O)C34CC5CC(CC3C5)C4)oc12` came in with a melting point of 103 to 107 °C.

With `O=C(O)c1ccc(-c2ccc3cc(OCc4ccccc4)c(C45CC6CC(CC(C6)C4)C5)cc3c2)cc1O`, the melting point lay in the range of 263 to 264 °C.

With `NC(=O)CN1C(=O)OCc2cc(Br)ccc21`, the melting point lay in the range of 253 to 254 °C.

Turning to `COC(=O)[C@H](Cc1c[nH]cn1)NC(=O)[C@H](Cc1ccccc1)NC(=O)[C@H](Cc1ccccc1)NC(=O)OCc1ccccc1` (Cbz-Phe-Phe-His-OMe), the melting point was in the range of 204 to 206 °C.

`Cn1cc(C(O)c2cccc(Cl)c2)cc1C(=O)O` (configuration not stated) showed a melting point of 180 °C.
